Like-named read-outs stand apart in the source and are kept apart here.
Tests used:
[1] = tested on: HCT-116 (p53+/+) colon cancer cells; test: Cell viability assay (MTT), HCT116 p53+/+; assay type: cell-based; settings: 72 hours
Protocol: (§1) Exponentially growing cells were plated in 96-well dishes. Dose response curves were used to treat cells for 72 hours with inhibitors. Following the three-day treatment, cell viability was measured using the MTT (3-(4,5-dimethylthiazol-2-yl)-2,5-diphenyltetrazolium bromide) colorimetric assay. Cells were incubated for 3 hours with MTT allowing viable cells to metabolize the tetrazolium dye to a purple colored solution.

[2] = tested on: HCT-116 (p53−/−) colon cancer cells; test: Cell viability assay (MTT), HCT116 p53-/-; assay type: cell-based; settings: 72 hours
Protocol: HCT-116 (p53+/+ and −/−) colon cancer cells were maintained DMEM (Invitrogen™, Carlsebad, Calif.) supplemented with 10% FBS or Nu-serum (BD™ Biosciences, Franklin Lakes, N.J.) and 1% penicillin/streptomycin (Invitrogen™) in a humidified incubator and 5% C02 at 37° C.
(§2) Exponentially growing cells were plated in 96-well dishes. Dose response curves were used to treat cells for 72 hours with inhibitors. Following the three-day treatment, cell viability was measured using the MTT (3-(4,5-dimethylthiazol-2-yl)-2,5-diphenyltetrazolium bromide) colorimetric assay. Cells were incubated for 3 hours with MTT allowing viable cells to metabolize the tetrazolium dye to a purple colored solution. Absorbance measurements (595 nm) were quantified using a DTX 880 plate reader and IC50 values were generated for FLIPs.

[3] = tested on: KRAS mutant lung cancer (A-549) cells; test: Cell viability assay (MTT), A-549; assay type: cell-based; settings: 72 hours
Protocol: A-549 lung cancer cells were maintained in Hams F-12 1× with glutamine (Corning® Cellgro, Manassas, Va.), and supplemented with 10% FBS or Corning® Nu-Serum™ (BD™ Biosciences, Franklin Lakes, N.J.) and 1% penicillin/streptomycin (Invitrogen™) in a humidified incubator and 5% C02 at 37° C.
as §2

PLK1 PBD (367-603) = molecular target: T1, PLK1 PBD (367-603) (Homo sapiens, UniProt P53350); test: Fluorescence polarization assay, PLK1 PBD; assay type: binding; settings: for PLK1 versus PLK3 specificity (in words): PBD binding; for IC50: PLK1 PBD binding, fluorescence polarization, read-out: PLK1 IC50
T1 construct: PLK1 PBD (367-603); purchased BPS Biosciences Inc. (San Diego, Calif.)
Protocol: Fluorescence Polarization Assay
Materials were dissolved in DMSO (10 mM) and diluted from 10 nM to 600 μM (maximum of 6% DMSO tolerance in the assay). […] Incubation was carried out at room temperature for 45 minutes. Fluorescence was measured using a DTX 880 plate reader and Multimode Analysis software (Beckman Coulter, Brea, Calif.). […] Each data point was performed in triplicate for every experiment, and experiments were performed at least three times. An IC50 value for each compound was calculated from linear regression analysis of the plots.

PC3 cells [4] = test: Cell cycle analysis after release (DAPI/BrdU FACS), FIG. 3; assay type: cell-based
Protocol: PLK specificity can be useful in therapeutic applications, as well as in research-oriented application.
(§3) Analysis of Cell Cycle Progression by FACS
(§4) Serum-Starved Synchronization
(§5) Cells were synchronized in G1 by serum starvation. Briefly, exponentially growing cells were plated overnight. Media (DMEM, 10% FBS, 1% Pen. Strep.) was then removed and replaced with media containing no FBS. Cells were starved for 72 hours then treated for 24 hours with inhibitor. Following treatment, cells were harvested and processed for endpoint experimental analysis.
(§6) Ethanol fixative was removed by centrifugation and the cells were washed with 1 mL ice-cold PBS/1% BSA. Cells were denatured by resuspending in 0.2 mg/mL pepsin in 2N HCl and incubated in 37° C. water bath for 15 minutes. Hydrolysis was then terminated by adding 1 M Invitrogen™ Novex® Tris-Glycine. Cells were then washed with PBS/1% BSA then the primary anti-BrdU antibody (1:100 dilution in TBFP; 0.5% Tween-20, 1% BSA, 1% FBS, PBS) was added and cells were incubated for 25 minutes in the dark, at room temperature. […] Cells were washed once more with PBS/1% BSA and re-suspended in DAPI for 30 minutes before being analyzed by flow cytometry.

full length PLK1 = molecular target: T2, full length PLK1 (Homo sapiens, UniProt P53350); test: PLK1 kinase inhibition assay (CycLex ELISA); assay type: biochemical; settings: 7.5 μM ATP, read-out: PLK1 Kinase Inhibitory Act. IC50
T2 construct: This ELISA assay measures the catalytic activity of full length PLK1 for a defined substrate
Description: PLK1 Kinase Inhibition Assay
The CycLex® Polo-like Kinase 1 Assay/Inhibitor Screening Kit was used to measure catalytic inhibition (MBL Life Science, Nagano, Japan). This ELISA assay measures the catalytic activity of full length PLK1 for a defined substrate, which is detected by an anti-phospho-threonine antibody (PPT-07) and peroxidase coupled secondary antibody. […] Peroxidase catalyzes the conversion of the colorless solution to yellow, which was quantified using a DTX 880 plate reader. Absorbance measurements (450 nm) were plotted to calculate activity in each sample, and % inhibition was calculated in the wells relative to activity in the absence of inhibitor.

[5] = tested on: HeLa cervical cancer cells; test: Cell viability assay (MTT), HeLa; assay type: cell-based; settings: read-out: HeLa
Protocol: HeLa cervical cancer cells were obtained from ATCC (Manassas, Va.). […] Cells were maintained in DMEM (Invitrogen™, Carlsebad, Calif.) supplemented with 10% FBS or Corning© Nu-Serum™ (BD™ Biosciences, Franklin Lakes, N.J.) and 1% penicillin/streptomycin (Invitrogen™) in a humidified incubator and 5% CO2 at 37° C.
as §1

[6] = tested on: PTEN deficient prostate cancer (PC3) cells; test: Cell viability assay (MTT), PC3; assay type: cell-based; settings: read-out: PCC-3
Protocol: PC3 prostate cancer cells were maintained in DMEM (Invitrogen™, Carlsebad, Calif.) supplemented with 10% FBS or Corning® Nu-Serum™ (BD™ Biosciences, Franklin Lakes, N.J.) and 1% penicillin/streptomycin (Invitrogen™) in a humidified incubator and 5% C02 at 37° C.
as §1

PC3 cells [7] = test: Cell cycle analysis and BrdU pulse labeling in PC3 cells, FIG. 9-11; assay type: cell-based; settings: for cells replicating their DNA (BrdU labeling): 5 μM
Protocol: as §3, §4, §5, §6
The PLK1 PBD-inhibitors were analyzed further by cell cycle analysis in PC3 cells (FIG. 9). […] To quantify the percentage of cells actively proliferating (synthesizing their DNA) or arrested Bromodeoxyuridine (BrdU) pulse labeling was carried out and analyzed by flow cytometry.

[8] = Cell cycle analysis and caspase apoptosis assay; assay type: cell-based
Description: Disclosed small molecule inhibitors can also encourage apoptosis.

[9] = Cytotoxicity, cell viability and apoptosis data, FIG. 12; assay type: cell-based; settings: average from various assays
Description: For instance, FIG. 12 presents cytotoxicity, cell viability, and apoptosis data for cells treated with inhibitor SCCP ID No: 6037. […] The data of FIG. 13 relates to SCCP ID No: 5914 and the data of FIG. 14 relates to SCCP ID No: 5915.

[10] = FIG. 3 4th panel, concentration not given

T1 sequence (P53350 367-603): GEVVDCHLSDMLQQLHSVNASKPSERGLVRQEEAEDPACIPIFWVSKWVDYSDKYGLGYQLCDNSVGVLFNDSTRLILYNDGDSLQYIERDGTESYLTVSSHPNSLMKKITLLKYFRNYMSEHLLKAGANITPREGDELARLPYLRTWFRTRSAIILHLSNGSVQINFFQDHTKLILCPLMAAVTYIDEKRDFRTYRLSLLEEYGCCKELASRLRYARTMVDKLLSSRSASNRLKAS
T2 sequence (P53350 whole entry): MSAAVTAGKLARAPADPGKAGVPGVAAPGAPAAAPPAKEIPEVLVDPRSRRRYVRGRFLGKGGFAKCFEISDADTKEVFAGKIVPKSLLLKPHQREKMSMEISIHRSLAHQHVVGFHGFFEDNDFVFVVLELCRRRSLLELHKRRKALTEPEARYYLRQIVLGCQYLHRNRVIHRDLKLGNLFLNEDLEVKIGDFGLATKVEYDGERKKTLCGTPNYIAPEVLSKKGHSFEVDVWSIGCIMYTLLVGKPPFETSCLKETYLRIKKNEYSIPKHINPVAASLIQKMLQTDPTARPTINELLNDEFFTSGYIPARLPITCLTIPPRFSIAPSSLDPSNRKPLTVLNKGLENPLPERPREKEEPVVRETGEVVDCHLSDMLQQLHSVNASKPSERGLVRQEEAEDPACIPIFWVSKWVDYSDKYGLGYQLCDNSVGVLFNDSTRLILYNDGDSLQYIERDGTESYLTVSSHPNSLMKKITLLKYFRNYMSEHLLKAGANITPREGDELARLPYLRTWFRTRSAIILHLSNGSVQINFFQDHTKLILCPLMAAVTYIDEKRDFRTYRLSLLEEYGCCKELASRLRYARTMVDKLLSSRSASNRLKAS

CCCCCCCCc1ccc(C(=O)Nc2ccc(C)cc2C(=O)O)cc1 [SCCP ID No. 5915] gave an IC50 [1] of 17.4 ± 5.6 µM, an IC50 [2] of 10 ± 1 µM and an IC50 [3] of 5.1 ± 1.5 µM. The “PLK1 versus PLK3 specificity (in words)” value (PLK1 PBD (367-603)) was “high selectivity for PLK1”, the IC50 (PLK1 PBD (367-603)) was 2.16 ± 0.01 µM and the “G2/M by DAPI” value (PC3 cells [4]; [10]) was 42%. The “cells BrdU+” value (PC3 cells [4]; [10]) was 13%, the IC50 (full length PLK1) was 24.3 µM and the IC50 ([5]; MTT, 72 hours) was 15.5 ± 1.7 µM. For the same compound, the IC50 ([6]; MTT, 72 hours) was 16.3 ± 2.1 µM, the “cells replicating their DNA (BrdU labeling)” value (PC3 cells [7]) was 28.3% and the “BrdU+” value (PC3 cells [7]; 15 μM) was 3.6%. For the same compound, the “cell cycle phenotype (in words)” value (PC3 cells [7]; 15 μM) was “G1 delay or arrest” and the “levels of apoptosis (in words)” value [8] was “high levels of apoptosis”.

In the case of CCCCCCCCCCCCc1ccc(C(=O)Nc2ccccc2C(=O)O)cc1 [SCCP ID No. 6037], the cell viability [9] is reported as 15.6 ± 3.4 µM, the cytotoxicity [9] is reported as 14.8 ± 3.6 µM and the “PLK1 versus PLK3 specificity (in words)” value (PLK1 PBD (367-603)) is reported as “selectivity for PLK3”. The IC50 (PLK1 PBD (367-603)) was 5.97 ± 0.38 µM, the “G2/M by DAPI” value (PC3 cells [4]; 5 μM) was 7% and the “BrdU+” value (PC3 cells [4]; 5 μM, FIG. 3 2nd panel) was 27%. For the same compound, the “G1 by DAPI” value (PC3 cells [4]; 5 μM, FIG. 3 2nd panel) was 77%, the “S by DAPI” value (PC3 cells [4]; 5 μM, FIG. 3 2nd panel) was 15% and the “G2/M by DAPI” value (PC3 cells [4]; 20 μM, FIG. 3 3rd panel) was 28%. For the same compound, the IC50 ([5]; Homo sapiens, HeLa, 72 h) was 14 ± 3.5 µM, the IC50 ([6]; Homo sapiens, PC-3, 72 h) was 9.4 ± 0.8 µM and the “cells replicating their DNA (BrdU labeling)” value (PC3 cells [7]) was 75.7%. The “BrdU+” value (PC3 cells [7]; 15 μM) was 1.9%, the “cell cycle phenotype (in words)” value (PC3 cells [7]; 15 μM) was “G1 arrest” and the “cell cycle phenotype (in words)” value (PC3 cells [7]; both the lower (5 μM) and higher (15 μM) dose, FIG. 11) was “G1 accumulation”. The “levels of apoptosis (in words)” value [8] was “high levels of apoptosis”.
